{"source": "patent US7820172B1", "about": "“Laminin-derived multi-domain peptides” (BioSurface Engineering Technologies, Inc., priority 2006, dated 2010)", "key": {"Male SD rats": {"system": "Male SD rats", "assay": "Tissue integration of LA2-coated ePTFE in rat subcutaneous implant model", "type": "in vivo", "settings": "two weeks after implant", "description": "Tissue integration of LA2-coated material in rat implant model. Male SD rats were anesthetized using an intraperitoneal administration of ketamine (40 mg/kg) and xylazine (5 mg/kg). Excess hair was removed and sterile surgical sites were prepared on the lower back. Subcutaneous pouches, approximately 3 cm long, were made through a skin incision using a hemostat and blunt dissection. A wafer (1×1.5 cm) of porous ePTFE was introduced into a subcutaneous pouch. The pouches were positioned on the upper flanks on either side of the backbone, with one wafer coated with MD LA2 and the other wafer uncoated. After the implant, the incision was closed with stainless steel surgical clips. Animals were assigned to experiment groups randomly. Each animal received bilateral subcutaneous implants. There were 8 implant sites for each treatment. After 14 days, animals were euthanized and the ePTFE implants were surgically recovered and processed for subsequent staining with hemotoxylin and eosin.\nWe hypothesized that ePTFE coated with LA2 would display improved tissue integration. […] In this analysis, the depth of tissue penetration was monitored by histomorphometric methods and scored on a scale of 1-4 (in 25% increments)."}, "RMEC cells": {"system": "RMEC cells", "type": "cell-based, rat", "settings": "for increase in percentage cells bound on polystyrene: 0.1 μg/ml, two hours, as a percentage of uncoated controls; for cell binding to the polystyrene surface: RMEC cells, versus uncoated controls", "description": "Cells Adhesion and Proliferation on LA2 coated surfaces. To evaluate the effects of LA2-coating on cell attachment, untreated polystyrene 96-well plates were coated with LA2 in concentration indicated in figures. In the cases of EVA films, ePTFE and titanium, the materials were placed in 48- or 96-well plate and coated with 2 μg/ml of LA2. Cell suspension in density of 1×10^6/ml was added to the wells. […] Cell number on the surface was determined using CyQuant® cell Proliferation Kit (Molecular Probes, Eugene, Oreg.). To detect cell adhesion on the titanium and ePTFE surfaces, cells were fixed with 4% buffered formalin and stained with bis-benzamide, viewed using fluorescence microscopy, and images recorded on digital media. In the cell proliferation studies, EVA films (6.5 mm diameter), similar to those used in the cell adhesion studies, were coated with 2 μg LA2/ml. The coated films were placed in untreated polystyrene 96-well plate and A7R5 cell suspension in density of 1×10^5/ml was added to the wells. After incubation of 3 hours, 3 and 7 days, the EVA films were transferred to a new 96-well plate and cell number on the film was determined using CyQuant® cell Proliferation Kit.\nYIGSR is a different laminin adhesion sequence that has been used to increase cell attachment to device surfaces. […] Since cells could bind to LA2 via cell surface heparan sulfate, the heparin binding domain of LA2 was blocked by coating peptide on substrate-adsorbed heparin."}, "cell attachment": {"system": "cell attachment", "assay": "Related cell binding assays comparing coatings (cell type not stated)", "type": "cell-based", "settings": "coating"}, "C2C12 cells": {"system": "C2C12 cells", "assay": "Attachment of C2C12 cells to coated polystyrene", "type": "cell-based, murine", "description": "FIG. 1. Microphotographs of C2C12 cell on LA2 polystyrene. Murine myoblast C2C12 cells were seeded on uncoated polystyrene (A), or polystyrene coated 0.05-(B), 0.2-(C), and 0.4 (D) μg/ml LA2. Three hours after cell seeding, the materials were washed with PBS and micrographs taken with phase contrast optics. Original magnification 200×.\nFIG. 2. Attachment of C2C12 cells to LA2 or SIKVAV (SEQ ID NO:16) coated polystyrene. C2C12 cells were seeded on polystyrene surface coated with LA2 (A) or SIKVAV (SEQ ID NO:16) (B). Three hours after seeding, unbound cells were removed by rinsing, and relative cell number determined using a fluorescent assay as described.\nCells Adhesion and Proliferation on LA2 coated surfaces. To evaluate the effects of LA2-coating on cell attachment, untreated polystyrene 96-well plates were coated with LA2 in concentration indicated in figures. […] Cell number on the surface was determined using CyQuant® cell Proliferation Kit (Molecular Probes, Eugene, Oreg.). To detect cell adhesion on the titanium and ePTFE surfaces, cells were fixed with 4% buffered formalin and stained with bis-benzamide, viewed using fluorescence microscopy, and images recorded on digital media. […] After incubation of 3 hours, 3 and 7 days, the EVA films were transferred to a new 96-well plate and cell number on the film was determined using CyQuant® cell Proliferation Kit."}, "cell binding": {"system": "cell binding", "assay": "Competitive blocking of cell binding to LA2", "type": "cell-based", "settings": "binding not eliminated by either agent individually"}}, "note": "Positions of bridges follow the written chain, without caps; N, C: chain ends. Non-standard residues stand in square brackets, D forms with d. Residues, ends and D or L forms follow the SMILES beside them. Chains are numbered I, II in the order given. No end group written: not given here. Ahx = NCCCCCC(=O)O"}
{"compound": "CC[C@H](C)[C@H](NC(=O)[C@H](CCCNC(=N)N)NC(=O)[C@H](CCC(=O)O)NC(=O)[C@H](CC(C)C)NC(=O)[C@H](CCCCN)NC(=O)[C@H](CCCNC(=N)N)NC(=O)[C@H](CCCCN)NC(=O)[C@H](CCCNC(=N)N)NC(=O)CCCCCNC(=O)CCCCCNC(=O)CCCCCNC(=O)[C@H](CCCCNC(=O)[C@H](C)NC(=O)[C@H](C)NC(=O)[C@@H](NC(=O)[C@H](C)NC(=O)[C@@H](NC(=O)[C@H](CCCCN)NC(=O)[C@@H](NC(=O)[C@@H](N)CO)[C@@H](C)CC)C(C)C)C(C)C)NC(=O)[C@H](C)NC(=O)[C@H](C)NC(=O)[C@@H](NC(=O)[C@H](C)NC(=O)[C@@H](NC(=O)[C@H](CCCCN)NC(=O)[C@@H](NC(=O)[C@@H](N)CO)[C@@H](C)CC)C(C)C)C(C)C)C(=O)N[C@@H](C)C(=O)N[C@@H](CCCNC(=N)N)C(N)=O", "note": "[LA2, H-SIKVAVAAK(H-SIKVAVAA)-Ahx-Ahx-Ahx-RKRKLERIAR-NH2] (I: H-SIKVAVAAK[Ahx][Ahx][Ahx]RKRKLERIAR-NH2 / II: H-SIKVAVAA; amide I:9-II:C)", "values": [{"measurement": "inflammation", "setting": "Male SD rats", "result": "little evidence of inflammation"}, {"measurement": "increase in percentage cells bound on polystyrene", "setting": "RMEC cells", "result": "over 150%"}]}
{"compound": "H-YIGSRAAK(H-YIGSRAA)-Ahx-Ahx-Ahx-RKRKLERIAR-NH2 (chain 1 H-YIGSRAAK[Ahx][Ahx][Ahx]; also: branched: chain 2 on Lys8 side chain of chain 1, chain 1 C-terminus joined to chain 3 N-terminus via Ahx-Ahx-Ahx) [MD Peptide 2, similar multi-domain peptide containing YIGSR]", "values": [{"measurement": "cell attachment versus linear SIKVAV, dimerized SIKVAV and random-sequence peptides", "setting": "cell attachment", "result": "more effective"}, {"measurement": "increase in percentage cells bound on polystyrene", "setting": "RMEC cells", "result": "over 50%"}, {"measurement": "cell binding to the polystyrene surface", "setting": "RMEC cells", "result": "substantially more effective than uncoated controls"}]}
{"compound": "SEQ ID NO:25 (KPVSLSYRAPARFFESHVA; Random sequence)", "values": [{"measurement": "cell binding to the polystyrene surface", "setting": "RMEC cells", "result": "did not support cell binding"}]}
{"compound": "SEQ ID NO:26 (DTAYKDWPNLFREIR; Random sequence)", "values": [{"measurement": "cell binding to the polystyrene surface", "setting": "RMEC cells", "result": "did not support cell binding"}]}
{"compound": "SIKVAV (Cellular attachment peptide sequence)", "values": [{"measurement": "coating concentration required to achieve the same levels of cell attachment", "setting": "C2C12 cells; C2C12, polystyrene (FIG. 2)", "result": 100, "unit": "µg/mL"}, {"measurement": "cell attachment compared to uncoated polystyrene", "setting": "C2C12 cells; C2C12 cells, coated polystyrene, 3 hours", "result": "able to increase cell attachment"}, {"measurement": "level of cell binding when used as competitive blocking agent", "setting": "cell binding", "result": "reduced the level of cell binding"}]}
{"compound": "heparin", "values": [{"measurement": "level of cell binding when used as competitive blocking agent", "setting": "cell binding", "result": "reduced the level of cell binding"}]}
